Patent publication US20140341983A1, “SMART™ SOLID ORAL DOSAGE FORMS” (priority 2011, published 2014)
Like-named read-outs stand apart in the source and are kept apart here.

Legend:
[1] = cited from earlier work
[2] = @ 25° C., experimental; cited from earlier work
[3] = Aim 1: breath kinetics and dose-response after sublingual solutions (SAW); assay type: in vivo, human
Experimental: Dose-response relationships were determined in four study participants following sublingual administration of solutions containing D-limonene and methyl salicylate. […] Five seconds after administration of the solution, the participant would blow a single five second breath into the SAW sensor. […] The participant kept his or her mouth closed when not providing a sample and refrained from breathing through the mouth or talking during the collection period. In addition, the more promising solutions (7, 12 and 16) were tested in triplicate to estimate reproducibility within individuals.

[4] = D-limonene recovery from placebo SL powder by LCMS (stability); assay type: physicochemical
Experimental: Three replicate 30 mg portions of this powder were removed immediately after preparation and extracted with acetonitrile to recover the D-limonene. The extracts were analyzed by liquid chromatography-mass spectrometry (LCMS). This was repeated with three more portions after four hours and again after eight hours (FIG. 26).

[5] = cited from earlier work; remark: listed apart in the source
[6] = Breath 2-butanone after ingestion of food or 2-butanol taggant; conditions: foods: two servings; 2-butanol taggant: 40 mg ingested, n=7
Experimental: To assess the interference produced by food, 6 subjects rapidly consumed (<5 min) two servings (≈16 fl. Oz) of yogurt or 2 servings (≈60 g) of cheddar cheese and breath samples were collected for 60 min after ingestion.

[7] = octanol-water coefficient; cited from earlier work
[8] = Oral vanillin detection by direct breath LCMS (OrbiTrap); assay type: in vivo, human; conditions: 30 μg vanillin in 10 μL neat ethanol on tongue
Source text: In the lower panel of FIG. 14, note how an internal standard (semi-volatile organic acid) stays constant for each of the six breaths.

[9] = dose that can be taken for remainder of life without regulatory concern

Row | Compound | Water Sol ([1]; @ 25° C.) | VP (vapor pressure) [2] | permissible daily exposure (PDE) ([5]; orally) [mg orally per day] | log P [7] | also measured
1 | CC(C)[C@@H]1CC[C@@H](C)C[C@H]1O (racemic) [DL-menthol] | 456 @ 25 °C mg/L | 0.0637 @ 25 °C mmHg | – | – | –
2 | C=C(C)[C@H]1CC=C(C)CC1 [D-limonene, 4-isopropenyl-1-methylcyclohexene] | – | – | – | – | breath concentration measured at 5 seconds lost by 50 seconds ([3]; human, in vivo): 78%; time course of flavorant concentration in exhaled breath ([3]; in vivo): decayed exponentially over time; D-limonene dose recovered from SL powder ([4]; at eight hours): 11%; D-limonene dose recovered from SL powder ([4]; at four hours): 22%; D-limonene dose recovered from SL powder ([4]; just after preparation): Approximately 65%
3 | CCC(C)O (stereo not drawn) [Formulation 2-butanol, 2-butanol] | – | – | 300 | – | permissible daily exposure (PDE) [5, 9]: 300 mg/day; Maximum 2-butanone (Cmax) in breath [6]: ≈ 549 ppb; Tmax of 2-butanone in breath [6]: 6.7 ± 0.6 min
4 | CCCC(C)=O [Formulation 2-pentanone, 2-pentanone] | – | – | 250 | – | permissible daily exposure (PDE) [5, 9]: 250 mg/day
5 | C=C(C)[C@@H]1CC=C(C)C(=O)C1 [L-carvone] | 1,310 @ 25 °C mg/L | 0.103 @ 25 °C mmHg | – | 2.71 | –
6 | CCO [ethanol, reference compound] | – | – | 166.7 | – | –
7 | COC(=O)c1ccccc1N [methyl anthranilate] | 2,850 @ 25 °C mg/L | – | – | 1.88 | –
8 | COC(=O)c1ccccc1O [methyl salicylate, methyl-2-hydroxybenzoate] | – | 0.0343 @ 25 °C mmHg | – | 2.55 | Water Sol ([1]; @ 30° C.): 700 @ 30 °C mg/L; time course of flavorant concentration in exhaled breath ([3]; after a single SL administration): decayed exponentially over time; breath concentration measured at 5 seconds lost by 50 seconds ([3]; single SL administration, average): 50%
9 | CC(C)c1cccc(C(C)C)c1O [propofol, reference compound] | 124 @ 25 °C mg/L | 0.00305 @ 25 °C mmHg | – | – | –
10 | COc1cc(C=O)ccc1O [vanillin, 4-hydroxy-3-methoxybenzaldehyde] | 11,000 @ 25 °C mg/L | 1.18E-04 @ 25 °C mmHg | – | – | persistence in human breath [8]: 2 min; persistence in human breath ([8]; listed as Vanillin): ≈ 2 min
